Calls of active or inactive are those of the source. The calls are words filed in the database; no cut-off is given here. Where a SMILES comes first, the peptide text is derived from it. Bridges are numbered along the chain shown (N, C = ends). [ ]: non-standard residue; d: D form. Phe(4-F) = N[C@@H](Cc1ccc(F)cc1)C(=O)O; d2Nal = N[C@H](Cc1ccc2ccccc2c1)C(=O)O; S5 = C=CCCC[C@](C)(N)C(=O)O
Experiments:
[1] = test system: GTPase KRas (Homo sapiens), P01116 [G12D]; experiment: Binding affinity to KRAS G12D mutant (unknown origin) assessed as change in melting temperature by SYPRO orange dye based thermal shift assay
Chain of GTPase KRas (Homo sapiens), P01116 [G12D] (P01116 whole entry G12D, looked up): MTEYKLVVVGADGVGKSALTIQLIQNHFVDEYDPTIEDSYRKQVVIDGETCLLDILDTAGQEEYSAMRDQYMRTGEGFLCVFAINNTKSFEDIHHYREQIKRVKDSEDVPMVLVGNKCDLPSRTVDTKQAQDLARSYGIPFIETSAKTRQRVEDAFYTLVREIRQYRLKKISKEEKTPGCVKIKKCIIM

HCT-116 [2] = experiment: Cytotoxicity against human HCT116 cells assessed as effect on cell membrane preincubated overnight measured after 4 hrs post stimulation by LDH release assay relative to control; assay type: cell-based; conditions: hct-116, 4 h
GTPase KRas [3] = molecular target: T1, GTPase KRas (Homo sapiens, UniProt P01116); experiment: Inhibition of KRAS in human U2OS cells assessed as inhibition in phosphorylation of ERK at 20 uM incubated for 15 mins by Western blot analysis; assay type: cell-based
Target sequence in this assay (P01116 whole entry, looked up): as the sequence (P01116 whole entry G12D, looked up) above, with D12G counted along it

U2OS = experiment: Antiproliferation activity against human U2OS cells assessed as measuring ATP content at > 20 uM measured after 72 hrs by CellTiter-Glo analysis; assay type: functional, cell-based; conditions: dose microM >20, time 72.0 hrs
[4] = test system: GTPase KRas (Homo sapiens), P01116 [G12V]; experiment: Binding affinity to KRAS G12V mutant (unknown origin) by isothermal titration calorimetry
Chain of GTPase KRas (Homo sapiens), P01116 [G12V] (P01116 whole entry G12V): as the sequence (P01116 whole entry G12D, looked up) above, with D12V counted along it

[5] = Aggregation property of peptides assessed as stable aggregates at 10 uM by dynamic light scattering analysis; assay type: physicochemical
[6] = test system: GTPase KRas (Homo sapiens), P01116 [G12D]; experiment: Binding affinity to KRAS G12D mutant (unknown origin) upto 1 uM by surface plasmon resonance analysis; conditions: dose microM <=1
[7] = molecular target: E3 ubiquitin-protein ligase Mdm2 (Homo sapiens) (UniProt Q00987); experiment: Binding affinity to MDM2 (unknown origin) upto 1 uM by surface plasmon resonance analysis; conditions: dose microM <=1
Chain of E3 ubiquitin-protein ligase Mdm2 (Homo sapiens) (Q00987 whole entry, looked up): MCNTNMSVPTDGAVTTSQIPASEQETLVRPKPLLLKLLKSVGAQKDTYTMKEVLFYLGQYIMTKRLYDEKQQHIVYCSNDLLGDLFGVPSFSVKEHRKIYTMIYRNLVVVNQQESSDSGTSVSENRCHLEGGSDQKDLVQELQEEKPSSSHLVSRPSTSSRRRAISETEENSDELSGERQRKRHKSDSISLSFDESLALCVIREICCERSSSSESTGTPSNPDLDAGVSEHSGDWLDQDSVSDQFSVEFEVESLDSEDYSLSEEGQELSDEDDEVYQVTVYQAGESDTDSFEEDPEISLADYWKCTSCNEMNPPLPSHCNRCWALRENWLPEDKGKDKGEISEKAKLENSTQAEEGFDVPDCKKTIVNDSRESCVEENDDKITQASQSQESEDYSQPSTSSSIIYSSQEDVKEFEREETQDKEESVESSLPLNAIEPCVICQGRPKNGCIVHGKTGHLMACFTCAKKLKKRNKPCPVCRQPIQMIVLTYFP

[8] = molecular target: Eukaryotic translation initiation factor 4E (Homo sapiens) (UniProt P06730); experiment: Binding affinity to eIF4E (unknown origin) upto 1 uM by surface plasmon resonance analysis
Chain of Eukaryotic translation initiation factor 4E (Homo sapiens) (P06730 whole entry): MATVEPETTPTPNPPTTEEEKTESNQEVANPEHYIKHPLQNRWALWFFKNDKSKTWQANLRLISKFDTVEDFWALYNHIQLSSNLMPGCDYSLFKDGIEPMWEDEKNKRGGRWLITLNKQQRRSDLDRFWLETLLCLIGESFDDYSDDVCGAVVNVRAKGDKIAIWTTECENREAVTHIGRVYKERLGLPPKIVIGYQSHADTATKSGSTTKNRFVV

[9] = test system: GTPase KRas (Homo sapiens), P01116 [G12D]; experiment: Binding affinity to KRAS G12D mutant (unknown origin) by isothermal titration calorimetry
HCT-116 [10] = experiment: Cytotoxicity against human HCT116 cells assessed as effect on cell membrane preincubated overnight measured after 4 hrs post stimulation by LDH release assay; assay type: cell-based
A549 = experiment: Antiproliferation activity against human A549 cells assessed as measuring ATP content at > 20 uM measured after 72 hrs by CellTiter-Glo analysis; assay type: functional, cell-based; conditions: dose microM >20, time 72.0 hrs
[11] = molecular target: E3 ubiquitin-protein ligase Mdm2 (Homo sapiens) (UniProt Q00987); experiment: Binding affinity to MDM2 (unknown origin) in presence of FAM-labelled peptides at 1 uM by surface plasmon resonance analysis
[12] = molecular target: Eukaryotic translation initiation factor 4E (Homo sapiens) (UniProt P06730); experiment: Binding affinity to eIF4E (unknown origin) in presence of Fam-labelled peptides at 1 uM by surface plasmon resonance analysis
GTPase KRas [13] = molecular target: T1, GTPase KRas; experiment: Binding affinity to wild type KRAS (unknown origin) using FAM-labelled peptide as substrate in absence of Tween20 by fluorescence polarization assay
Target sequence in this assay (P01116 whole entry): as the sequence (P01116 whole entry G12D, looked up) above, with D12G counted along it

GTPase KRas [14] = molecular target: GTPase KRas (Homo sapiens, UniProt P01116, G12D); experiment: (§1) Binding affinity to KRAS G12D mutant (unknown origin) using FAM-labelled peptide as substrate in absence of Tween20 by fluorescence polarization assay
Chain of GTPase KRas (Homo sapiens, UniProt P01116, G12D) (P01116 whole entry G12D): as the sequence (P01116 whole entry G12D, looked up) above

[15] = molecular target: E3 ubiquitin-protein ligase Mdm2 (Homo sapiens) (UniProt Q00987); experiment: Binding affinity to MDM2 (unknown origin) using FAM-labelled peptide as substrate in absence of Tween20 by fluorescence polarization assay
[16] = molecular target: Eukaryotic translation initiation factor 4E (Homo sapiens) (UniProt P06730); experiment: Binding affinity to eIF4E (unknown origin) using FAM-labelled peptide as substrate in absence of Tween20 by fluorescence polarization assay
[17] = Aggregation property of FAM-labelled peptides assessed as diameter of aggregate size at 10 uM by dynamic light scattering analysis; assay type: physicochemical
Homo sapiens = organism: Homo sapiens; experiment: Binding affinity to KRAS Q61H mutant (unknown origin) using FAM-labelled peptide as substrate in presence of Tween20 by fluorescence polarization assay
GTPase KRas [18] = molecular target: T1, GTPase KRas; experiment: Binding affinity to wild type KRAS (unknown origin) using FAM-labelled peptide as substrate in presence of Tween20 by fluorescence polarization assay
Target sequence in this assay (P01116 whole entry, looked up): as the sequence (P01116 whole entry G12D, looked up) above, with D12G counted along it

[19] = test system: GTPase KRas (Homo sapiens), P01116 [G12D]; experiment: Binding affinity to KRAS G12D mutant (unknown origin) in presence of FAM-labelled peptide at 1 uM by surface plasmon resonance analysis
[20] = test system: GTPase KRas (Homo sapiens), P01116 [G12D]; experiment: as §1
[21] = molecular target: E3 ubiquitin-protein ligase Mdm2 (Homo sapiens) (UniProt Q00987); experiment: Binding affinity to MDM2 (unknown origin) using FAM-labelled peptide as substrate in presence of Tween20 by fluorescence polarization assay
[22] = molecular target: Eukaryotic translation initiation factor 4E (Homo sapiens) (UniProt P06730); experiment: Binding affinity to eIF4E (unknown origin) using FAM-labelled peptide as substrate in presence of Tween20 by fluorescence polarization assay
[23] = molecular target: Eukaryotic translation initiation factor 4E (Homo sapiens) (UniProt P06730); experiment: Binding affinity to eIF4E (unknown origin) in presence of peptides at 300 nM by surface plasmon resonance analysis

In the case of `CCCC[C@H]1NC(=O)[C@@H](Cc2ccc(F)cc2)NC(=O)[C@H](CCCNC(=N)N)NC(=O)[C@@H](Cc2ccc3ccccc3c2)NC(=O)[C@H](CCCNC(=N)N)NC(=O)[C@H](CCCNC(=N)N)NC(=O)[C@@H](CCCNC(=N)N)NC(=O)[C@@H](C)NC(=O)[C@H](C(C)(C)C)NC(=O)[C@H](Cc2c[nH]c3ccccc23)NC(=O)[C@H](CCC(N)=O)NC1=O`, the ΔTm [1] is reported as -5.9 °C.
With `CC(=O)N[C@@H](CC(C)C)C(=O)N[C@H](C(=O)N[C@@H](Cc1ccccc1)C(=O)N[C@]1(C)CCCCCC/C=C/CCC[C@@](C)(C(=O)N[C@@H](CO)C(=O)N[C@@H](C)C(=O)N[C@@H](C)C(N)=O)NC(=O)[C@H](CC2CCC2)NC(=O)[C@H](CC(C)C)NC(=O)[C@H](CCC(N)=O)NC(=O)[C@H](Cc2c[nH]c3ccccc23)NC(=O)[C@H](Cc2ccc(O)cc2)NC(=O)[C@H](CCC(=O)O)NC1=O)[C@@H](C)O` the Activity (HCT-116 [2]) was under 10%.
With `CCCC[C@H]1NC(=O)[C@H](Cc2ccc(F)cc2)NC(=O)[C@H](CCCNC(=N)N)NC(=O)[C@@H](Cc2ccc3ccccc3c2)NC(=O)[C@H](CCCNC(=N)N)NC(=O)[C@H](CCCNC(=N)N)NC(=O)[C@H](CCCNC(=N)N)NC(=O)[C@H](C)NC(=O)[C@H]([C@@H](C)O)NC(=O)[C@@H](Cc2c[nH]c3ccccc23)NC(=O)[C@@H](CCC(N)=O)NC1=O` the Activity (GTPase KRas [3]) was “inactive”, the Activity (U2OS) was “Active” and the Activity [4] was “inactive”. For the same molecule, the Activity [5] was “Not Active”, the Activity [6] was “inactive” and the Activity [7] was “inactive”. For the same molecule, the Activity [8] was “inactive”, the Activity [9] was “inactive” and the EC50 (HCT-116 [10]) was 30 µM. The Activity (A549) was “Active”, the Activity [11] was “Active” and the Activity [12] was “Active”.
For `CC[C@H](C)[C@H](NC(=O)CNC(=O)[C@H](Cc1ccccc1)NC(=O)[C@H](Cc1ccccc1)NC(=O)[C@H](CCCNC(=N)N)NC(=O)[C@H](CCCNC(=N)N)NC(C)=O)C(=O)N[C@@]1(C)CCC/C=C/CCC[C@@](C)(C(=O)N[C@@H](CC(C)C)C(=O)N[C@@H](CCCCN)C(=O)N[C@H](C(=O)N[C@@H](CCC(=O)O)C(=O)N[C@@H](CCC(=O)O)C(=O)NCC(=O)N[C@@H](CC(N)=O)C(N)=O)[C@@H](C)O)NC(=O)[C@H](CC(N)=O)NC(=O)[C@H]([C@@H](C)O)NC(=O)[C@H](CC(C)C)NC1=O`, the inhibition (GTPase KRas [3]) was “Active”, the Activity (U2OS) was “Active” and the Kd (GTPase KRas [13]) was 0.43 µM. For the same molecule, the Kd (GTPase KRas [14]) was 0.43 µM, the Activity [15] was “Active” and the Activity [16] was “Active”. For the same molecule, the Activity [5] was “Not Active”, the Activity [17] was 350 nm and the Activity [6] was “inactive”. For the same molecule, the Activity [7] was “inactive”, the Activity [8] was “inactive” and the Activity [9] was “inactive”. For the same molecule, the EC50 (HCT-116 [10]) was 10 µM, the Activity (A549) was “Active” and the Activity (Homo sapiens) was “inactive”. The Activity (GTPase KRas [18]) was “inactive”, the Activity [19] was “inactive” and the Activity [11] was “Active”. The Activity [12] was “Active”.
With `C=CCCC[C@](C)(NC(=O)[C@H](CC(N)=O)NC(=O)[C@@H](NC(=O)[C@H](CC(C)C)NC(=O)[C@](C)(CCCC=C)NC(=O)[C@@H](NC(=O)CNC(=O)[C@H](Cc1ccccc1)NC(=O)[C@H](Cc1ccccc1)NC(=O)[C@H](CCCNC(=N)N)NC(=O)[C@H](CCCNC(=N)N)NC(C)=O)[C@@H](C)CC)[C@@H](C)O)C(=O)N[C@@H](CC(C)C)C(=O)N[C@@H](CCCCN)C(=O)N[C@H](C(=O)N[C@@H](CCC(=O)O)C(=O)N[C@@H](CCC(=O)O)C(=O)NCC(=O)N[C@@H](CC(N)=O)C(N)=O)[C@@H](C)O` the EC50 (HCT-116 [10]) was 8 µM.
With `CC[C@H](C)[C@H](NC(=O)[C@]1(C)CCC/C=C/CCC[C@](C)(NC(=O)CNC(=O)[C@H](Cc2ccccc2)NC(=O)[C@H](Cc2ccccc2)NC(=O)[C@H](CCCNC(=N)N)NC(=O)[C@H](CCCNC(=N)N)NC(C)=O)C(=O)N[C@@H](Cc2ccc(O)cc2)C(=O)N[C@@H](CC(C)C)C(=O)N[C@@H]([C@@H](C)O)C(=O)N1)C(=O)N[C@@H](CC(C)C)C(=O)N[C@@H](CCCCN)C(=O)N[C@H](C(=O)N[C@@H](CCC(=O)O)C(=O)N[C@@H](CCC(=O)O)C(=O)NCC(=O)N[C@@H](CC(N)=O)C(N)=O)[C@@H](C)O` the Activity [20] was “Active”, the Activity [15] was “Active” and the Activity [16] was “Active”. For the same molecule, the Activity [5] was “Not Active”, the Activity [17] was 1200 nm and the Activity (HCT-116 [2]) was under 10%. The Activity [21] was “inactive” and the Activity [22] was “inactive”.
With `C[C@H]1NC(=O)[C@H](CCCNC(=N)N)NC(=O)[C@H](Cc2c[nH]c3ccccc23)NC(=O)[C@H](CCCNC(=N)N)NC(=O)[C@H](Cc2ccc(F)cc2)NC(=O)[C@H](CCCNC(=N)N)NC(=O)[C@@H](Cc2ccc3ccccc3c2)NC(=O)[C@H](CCCNC(=N)N)NC(=O)[C@H](CCCNC(=N)N)NC(=O)[C@H](CCC(N)=O)NC1=O` (cyclo(RR[d2Nal]R[Phe(4-F)]RWR[dA]Q)) the Activity (HCT-116 [2]) was under 10%.
With `CC(=O)N[C@@H](CCCCN)C(=O)N[C@@H](CCCCN)C(=O)N[C@@H](CCCNC(=N)N)C(=O)N[C@@H](Cc1ccc(O)cc1)C(=O)N[C@@H](CO)C(=O)N[C@@H](CCCNC(=N)N)C(=O)NC(C)(C)C(=O)N[C@@H](CCC(N)=O)C(=O)N[C@@H](CC(C)C)C(=O)N[C@@H](CC(C)C)C(=O)NC(C)(C)C(=O)N[C@@H](CC(C)C)C(N)=O` the Activity (HCT-116 [2]) was under 10%, the Activity [19] was “inactive” and the Activity [23] was “Active”.
In the case of `CC(=O)N[C@@H](CC(C)C)C(=O)N[C@H](C(=O)N[C@@H](Cc1ccccc1)C(=O)N[C@]1(C)CCCCCC/C=C/CCC[C@@](C)(C(=O)N[C@H](CO)C(=O)N[C@H](C)C(=O)N[C@H](C)C(N)=O)NC(=O)[C@@H](CC2CCC2)NC(=O)[C@H](CC(C)C)NC(=O)[C@H](CCC(N)=O)NC(=O)[C@H](Cc2c[nH]c3ccccc23)NC(=O)[C@H](Cc2ccc(O)cc2)NC(=O)[C@H](CCC(=O)O)NC1=O)[C@@H](C)O`, the Activity [19] is reported as “inactive”.
For `CC(=O)NCCCC[C@H](N)C(=O)N[C@@H](CCCCN)C(=O)N[C@@H](CCCNC(=N)N)C(=O)N[C@@H](Cc1ccc(O)cc1)C(=O)N[C@@H](CO)C(=O)N[C@@H](CCCNC(=N)N)C(=O)N[C@@]1(C)CCC/C=C/CCC[C@@](C)(C(=O)N[C@@H](Cc2ccccc2)C(N)=O)NC(=O)[C@H](C(C)C)NC(=O)[C@H](C(C)C)NC(=O)[C@H](Cc2ccccc2)NC1=O` (H-K(Ac)KRYSR[S5]FVV[S5]F-NH2; staple (E) 7-11), the EC50 (HCT-116 [10]) was 20 µM.

Source: ChEMBL document CHEMBL4725447, “De-risking Drug Discovery of Intracellular Targeting Peptides: Screening Strategies to Eliminate False-Positive Hits” (ACS Med Chem Lett, 2020)
